The values below come from patent US11077100B2, “Tetrahydroquinoline derivatives as P2X7 receptor antagonists” (RaQualia Pharma Inc., priority 2017, dated 2021).

The structures appear in SMILES notation. pIC50: −log10 of the molar value.

In general, pIC50 refers to the negative decadic logarithm of the IC50, by convention in mol/L.

For one assay, the target named is human P2X7 (Homo sapiens (Human), UniProt Q99572). Put plainly: Human P2X7 functional assay (Ca2+ influx, Fluo-4, FDSS). It is filed as cell-based. The following applies: antagonistic activity with respect to the human P2X7 receptor; BzATP final concentration 80 microM. An outline of the steps: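 HEK293 cells stably expressing C-terminally FLAG-tagged human P2X7, loaded with Fluo-4. Compounds were preincubated for 10 min at room temperature, then 80 μM BzATP (final) was added and Ca2+ fluorescence read at 540 nm (480 nm excitation) by FDSS. IC50 values come from 7-point curves, duplicate wells.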

The target of a further assay is rat P2X7 (Rattus norvegicus (Rat), UniProt Q64663). Description: Rat P2X7 functional assay (Ca2+ influx, Fluo-4, FDSS). It is filed as cell-based. To be noted: HEK293 cells stably expressing rat P2X7; BzATP final 10 microM; 7-point dose-response; read-out: Antagonistic activities with respect to the rat P2X7 receptor (IC50). The gist of the method:
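HEK293 cells stably expressing rat P2X7 (5,000/well, plated 24 h before) loaded with Fluo-4; compounds preincubated 10 min at room temperature, then Ca2+ rise after 10 microM BzATP (final) read on FDSS (480/540 nm). IC50 from 7-point curves, duplicate wells.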

Sequence of rat P2X7 (Q64663 whole entry): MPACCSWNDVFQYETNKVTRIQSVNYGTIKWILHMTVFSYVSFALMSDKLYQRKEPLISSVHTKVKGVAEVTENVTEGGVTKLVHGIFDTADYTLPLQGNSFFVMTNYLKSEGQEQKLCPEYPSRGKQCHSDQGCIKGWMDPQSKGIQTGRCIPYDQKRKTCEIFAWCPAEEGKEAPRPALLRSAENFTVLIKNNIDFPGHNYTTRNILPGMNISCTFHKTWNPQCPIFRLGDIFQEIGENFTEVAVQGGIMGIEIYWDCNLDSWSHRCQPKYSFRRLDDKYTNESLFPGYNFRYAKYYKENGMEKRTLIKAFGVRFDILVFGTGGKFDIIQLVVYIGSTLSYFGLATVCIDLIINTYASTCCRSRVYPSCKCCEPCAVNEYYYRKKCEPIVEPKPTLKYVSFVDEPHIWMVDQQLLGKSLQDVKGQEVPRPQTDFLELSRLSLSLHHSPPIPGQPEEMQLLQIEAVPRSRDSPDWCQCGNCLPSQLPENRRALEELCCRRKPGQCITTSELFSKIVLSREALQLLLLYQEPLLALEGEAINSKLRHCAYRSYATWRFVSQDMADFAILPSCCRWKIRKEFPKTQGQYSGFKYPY
Sequence of human P2X7 (Q99572 whole entry): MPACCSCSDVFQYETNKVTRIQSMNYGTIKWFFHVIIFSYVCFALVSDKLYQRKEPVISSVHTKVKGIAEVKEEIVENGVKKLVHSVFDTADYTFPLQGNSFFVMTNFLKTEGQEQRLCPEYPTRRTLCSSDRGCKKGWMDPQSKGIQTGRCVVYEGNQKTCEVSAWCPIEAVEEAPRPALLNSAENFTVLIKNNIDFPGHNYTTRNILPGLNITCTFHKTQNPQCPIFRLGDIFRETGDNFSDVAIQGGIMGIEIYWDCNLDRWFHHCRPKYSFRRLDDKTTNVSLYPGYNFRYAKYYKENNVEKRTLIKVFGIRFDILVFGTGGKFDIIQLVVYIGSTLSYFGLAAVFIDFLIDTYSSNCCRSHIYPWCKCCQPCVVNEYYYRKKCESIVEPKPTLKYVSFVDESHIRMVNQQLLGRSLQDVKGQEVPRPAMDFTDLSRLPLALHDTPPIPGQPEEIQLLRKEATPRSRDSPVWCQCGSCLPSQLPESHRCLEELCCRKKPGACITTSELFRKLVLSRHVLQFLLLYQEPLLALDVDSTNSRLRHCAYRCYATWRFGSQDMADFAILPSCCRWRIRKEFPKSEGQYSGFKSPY

For `O=C1CC[C@@](F)(C(=O)NCc2ccc(F)c(F)c2F)c2cccnc21` [Example 254, (S)-5-fluoro-8-oxo-N-(2,3,4-trifluorobenzyl)-5,6,7,8-tetrahydro-quinoline-5-carboxamide], the pIC50 is 6.00 to 6.52 against human P2X7 and greater than 6.00 at rat P2X7.

Turning to `O=C(NCC1(c2ccc(Cl)cc2Cl)CCOCC1)[C@]1(F)CC[C@H](O)c2ncccc21` [Example 240, (5S,8S)-N-((4-(2,4-dichlorophenyl)tetrahydro-2H-pyran-4-yl)methyl)-5-fluoro-8-hydroxy-5,6,7,8-tetrahydroquinoline-5-carboxamide], the negative-log IC50 (pIC50) on human P2X7 was 6.00 to 6.52; at rat P2X7, greater than 6.00.

Turning to `COCC1(O)CCC(F)(C(=O)NCc2c(C)cc(Cl)cc2Cl)c2cccnc21` (centres unmarked) [Example 39, N-(2,4-dichloro-6-methylbenzyl)-5-fluoro-8-hydroxy-8-(methoxymethyl)-5,6,7,8-tetrahydro-quinoline-5-carboxamide], the negative logarithm of the IC50 (pIC50) at human P2X7 was greater than 7.30; at rat P2X7, greater than 6.00.

For `O=C(NCc1cccc(Cl)c1)[C@]1(F)CC[C@H](O)c2ncccc21` [Example 205, (5S,8S)-N-(3-chlorobenzyl)-5-fluoro-8-hydroxy-5,6,7,8-tetrahydroquinoline-5-carboxamide], the negative-log IC50 (pIC50) is 7.00 to 7.30 on human P2X7 and greater than 6.00 at rat P2X7.

For `O=C(NCc1ccc(Cl)cc1Cl)C1(F)CC(O)c2ncccc21` (centres unmarked) [Example 29, N-(2,4-dichlorobenzyl)-5-fluoro-7-hydroxy-6,7-dihydro-5H-cyclopenta[b]pyridine-5-carboxamide], the pIC50 at human P2X7 was greater than 7.30; at rat P2X7 it was greater than 6.00.

For `O=C(NCc1ccc(Cl)cc1C(F)(F)F)[C@]1(F)CC[C@H](O)c2ncccc21` [Example 157, (5S,8S)-N-(4-chloro-2-(trifiuoromethyl)benzyl)-5-fluoro-8-hydroxy-5,8,7,8-tetrahydroquinoline-5-carboxamide], the pIC50 was greater than 7.30 on human P2X7 and greater than 6.00 at rat P2X7.

On to `O=C(NCc1ccc(F)cc1Cl)[C@]1(F)CC[C@](O)(CO)c2ncccc21` [Example 307, (5S,8R)-N-(2-chloro-4-fluorobenzyl)-5-fluoro-8-hydroxy-8-(hydroxymethyl)-5,6,7,8-tetrahydroquinoline-5-carboxamide], for which the negative logarithm of the IC50 (pIC50) against human P2X7 was 6.00 to 6.52; on rat P2X7, greater than 6.00.

On to `O=C(NCc1ccc(F)c(F)c1F)[C@]1(F)CC[C@@H](O)c2ncccc21` [Example 108, (5S,8R)-5-fluoro-8-hydroxy-N-(2,3,4-trifluorobenzyl)-5,6,7,8-tetrahydroquinoline-5-carboxamide], for which the values for the pIC50 against human P2X7 and at rat P2X7 were 6.00 to 6.52 and greater than 6.00, respectively.

In the case of `O=C(NCc1cccc(F)c1C(F)(F)F)[C@]1(F)CC[C@H](O)c2ncccc21` [Example 178, (58,8S)-5-fluoro-N-(3-fluoro-2-(trifluoromethyl)benzyl)-8-hydroxy-5,6,7,8-tetrahydroquinoline-5-carboxamide], the negative logarithm of the IC50 (pIC50) was greater than 7.30 at human P2X7 and greater than 6.00 on rat P2X7.

In the case of `O=C(NCc1c(F)ccc(F)c1Cl)[C@]1(F)CC[C@H](O)c2ncccc21` [Example 170, (5S,8S)-N-(2-chloro-3,6-difluorobenzyl)-5-fluoro-8-hydroxy-5,6,7,8-tetrahydroquinoline-5-carboxamide], the results for the negative logarithm of the IC50 (pIC50) on human P2X7 and on rat P2X7 were greater than 7.30 and greater than 6.00, respectively.

In the case of `O=C(NCc1ccc(Cl)c(F)c1F)[C@]1(F)CC[C@H](O)c2ncccc21` [Example 183, (5S,8S)-N-(4-chloro-2,3-difluorobenzyl)-5-fluoro-8-hydroxy-5,6,7,8-tetrahydroquinoline-5-carboxamide], the negative logarithm of the IC50 (pIC50) against human P2X7 was greater than 7.30; at rat P2X7 it was greater than 6.00.

Take `O=C(NCc1ccc(Cl)cc1Cl)[C@]1(F)CCC(S(=O)(=O)CCO)c2ncccc21` (stereo partly drawn) [Example 351, (5S)-N-(2,4-clichlorebenzyl)-5-fluoro-8-((2-hydroxyethyl)sulfenyl)-5,6,7,8-letrahydroquineline-5-carboxamide]: the pIC50 against human P2X7 is greater than 7.30; on rat P2X7, greater than 6.00.

On to `O=C(NCc1cccc(C(F)(F)F)c1Cl)[C@]1(F)CC[C@@H](O)c2ncccc21` [Example 102, (5S,8R)-N-(2-chloro-3-(trifluoromethyl)benzyl)-5-fluoro-8-hydroxy-5,6,7,8-tetrahydroquinoline-5-carboxamide], for which the negative-log IC50 (pIC50) against human P2X7 was greater than 7.30; at rat P2X7, greater than 6.00.

As to `O=C(NCc1c(Cl)cc(F)cc1CO)[C@]1(F)CC[C@H](O)c2ncccc21` [Example 150, (5S,8S)-N-(2-chloro-4-fluoro-6-(hydroxymethyl)benzyl)-5-fluoro-8-hydroxy-5,6,7,8-tetrahydroquinoline-5-carboxamide], the negative-log IC50 (pIC50) against human P2X7 is greater than 7.30; at rat P2X7, greater than 6.00.

As to `CSC[C@]1(O)CC[C@@](F)(C(=O)NCc2ccc(F)cc2Cl)c2cccnc21` [Example 288, (5S,8S)-N-(2-chloro-4-fluorobenzyl)-5-fluoro-8-hydroxy-8-((methylthio)methyl)-5,6,7,8-tetrahydroquinoline-5-carboxamide], the results for the negative-log IC50 (pIC50) on human P2X7 and on rat P2X7 were greater than 7.30 and greater than 6.00, respectively.

For the molecule `Cc1cc(Cl)cc(Cl)c1CNC(=O)C1(F)CCC(O)(CN)c2ncccc21` (centres unmarked) [Example 45, 8-(aminomethyl)-N-(2,4-dichloro-6-methylbenzyl)-5-fluoro-8-hydroxy-5,6,7,8-tetrahydro-quinoline-5-carboxamide], the pIC50 at human P2X7 is greater than 7.30; on rat P2X7, greater than 6.00.

For `C[C@]1(O)CC[C@@](F)(C(=O)NCc2ccc(F)cc2F)c2cccnc21` [Example 263, (5S,8S)-N-(2,4-difluorobenzyl)-5-fluoro-8-hydroxy-8-methyl-5,6,7,8-tetrahydroquinoline-5-carboxamide], the pIC50 is greater than 7.30 on human P2X7 and greater than 6.00 on rat P2X7.

Turning to `Cc1cc(Cl)cc(Cl)c1CNC(=O)C1CCC(O)(CN)c2ncccc21` (centres unmarked) [Example 43, 8-(aminomethyl)-N-(2,4-dichloro-6-meth-ylbenzyl)-8-hydroxy-5,6,7,8-tetrahydroquinoline-5-carboxamide], the pIC50 on human P2X7 is greater than 7.30; on rat P2X7, greater than 6.00.

For `O=C1CCC(C(=O)NCc2cccc(Cl)c2Cl)c2cccnc21` (centres unmarked) [Example 3, N-(2,3-dichlorobenzyl)-8-oxo-5,6,7,8-tetrahydro-quinoline-5-carboxamide], the negative-log IC50 (pIC50) against human P2X7 was 6.00 to 6.52; at rat P2X7 it was greater than 6.00.

In the case of `NCC1(O)CCC(F)(C(=O)NCc2cccc(C(F)(F)F)c2Cl)c2cccnc21` (centres unmarked) [Example 48, 8-(aminomethyl)-N-(2-chloro-3-(trifluoro-methyl)benzyl)-5-fluoro-8-hy-droxy-5,6,7,8-tetra-hydroquinoline-5-carboxamide], the negative logarithm of the IC50 (pIC50) was greater than 7.30 at human P2X7 and greater than 6.00 at rat P2X7.

In the case of `O=C1COC[C@]2(CC[C@@](F)(C(=O)NCc3ccc(Cl)cc3Cl)c3cccnc32)N1` (relative stereo) [Example 61, (3R*,5′S*)-N-(2,4-dichlorobenzyl)-5′-fluoro-5-oxo-6′,7′-dihydro-5′H-spiro[morpholine-3,8′-quinoline]-5′-carboxamide], the negative logarithm of the IC50 (pIC50) was greater than 7.30 against human P2X7 and greater than 6.00 at rat P2X7.

Turning to `O=C(NCc1c(Cl)cc(Cl)cc1CO)[C@@]1(F)CC[C@@H](O)c2ncccc21` [Example 130, (5R,8R)-N-(2,4-dichloro-6-(hydroxymethyl)benzyl)-5-fluoro-8-hydroxy-5,6,7,8-tetrahydroquinoline-5-carboxamide], the pIC50 at human P2X7 was greater than 7.30; on rat P2X7, greater than 6.00.
